Holding throughout (format): biochemical
In one test the target is T1, KDR protein kinase (Homo sapiens, UniProt P35968).
T1 construct: purchased Millipore 14-630M
Briefly: Alphascreen protein tyrosine kinase assay, KDR. An outline of the steps: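 Recombinant human kinases were assayed by AlphaScreen phosphotyrosine detection with biotinylated peptide substrates at 0.1-3 μM final. Inhibitors in aqueous DMSO (≤1%) were preincubated for 30 min before ATP was added, and compounds were screened at 20 μM in the dilution plate.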

In the next test the target is T2, Hck(h) (Homo sapiens, UniProt P08631).
T2 construct: purchased Upstate Biotechnology (Dundee, UK), KinaseProfiler service
T2 sequence (P08631 whole entry): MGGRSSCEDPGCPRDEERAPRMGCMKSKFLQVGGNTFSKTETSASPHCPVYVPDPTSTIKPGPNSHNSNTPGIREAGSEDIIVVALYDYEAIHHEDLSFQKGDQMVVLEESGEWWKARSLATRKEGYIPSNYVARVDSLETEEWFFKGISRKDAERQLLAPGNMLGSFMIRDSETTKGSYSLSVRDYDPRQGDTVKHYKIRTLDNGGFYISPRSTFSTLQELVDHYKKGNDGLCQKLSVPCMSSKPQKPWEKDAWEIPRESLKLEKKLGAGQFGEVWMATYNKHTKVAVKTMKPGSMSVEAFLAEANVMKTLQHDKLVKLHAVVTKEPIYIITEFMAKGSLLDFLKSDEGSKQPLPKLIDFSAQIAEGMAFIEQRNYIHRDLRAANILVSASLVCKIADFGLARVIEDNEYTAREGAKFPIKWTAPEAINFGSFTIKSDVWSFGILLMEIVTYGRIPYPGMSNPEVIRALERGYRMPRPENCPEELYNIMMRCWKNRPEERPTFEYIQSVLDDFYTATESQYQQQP
In words: KinaseProfiler assay (Upstate), Hck. The protocol:
(§1) Further enzyme assays were conducted at Upstate Biotechnology (Dundee, UK) in the KinaseProfiler™ Assay system.
(§2) The general protocol is as follows. All kinases are pre-diluted to a 10× working concentration prior to addition into the assay. The composition of the dilution buffer for the kinases is 20 mM MOPS pH 7.0, 1 mM EDTA, 0.1% β-mercaptoethanol, 0.01% Brij-35, 5% glycerol, 1 mg/ml BSA. All substrates are dissolved and diluted to working stocks in de-ionised water.
In a final reaction volume of 25 μl, Hck (h) (5-10 mU) is incubated with 8 mM MOPS pH 7.0, 0.2 mM EDTA, 250 μM […] (Cdc2 peptide), 10 mM MgAcetate and [γ-33P-ATP] (specific activity approx. 500 cpm/pmol, concentration as required). The reaction is initiated by the addition of the MgATP mix. After incubation for 40 minutes at room temperature, the reaction is stopped by the addition of 5 μl of a 3% phosphoric acid solution. 10 μl of the reaction is then spotted onto a P30 filtermat and washed three times for 5 minutes in 75 mM phosphoric acid and once in methanol prior to drying and scintillation counting.

For another test, the target named is T3, EphA3(h) (Homo sapiens, UniProt P29320).
T3 construct: purchased Upstate Biotechnology (Dundee, UK), KinaseProfiler service
T3 sequence (P29320 21-983): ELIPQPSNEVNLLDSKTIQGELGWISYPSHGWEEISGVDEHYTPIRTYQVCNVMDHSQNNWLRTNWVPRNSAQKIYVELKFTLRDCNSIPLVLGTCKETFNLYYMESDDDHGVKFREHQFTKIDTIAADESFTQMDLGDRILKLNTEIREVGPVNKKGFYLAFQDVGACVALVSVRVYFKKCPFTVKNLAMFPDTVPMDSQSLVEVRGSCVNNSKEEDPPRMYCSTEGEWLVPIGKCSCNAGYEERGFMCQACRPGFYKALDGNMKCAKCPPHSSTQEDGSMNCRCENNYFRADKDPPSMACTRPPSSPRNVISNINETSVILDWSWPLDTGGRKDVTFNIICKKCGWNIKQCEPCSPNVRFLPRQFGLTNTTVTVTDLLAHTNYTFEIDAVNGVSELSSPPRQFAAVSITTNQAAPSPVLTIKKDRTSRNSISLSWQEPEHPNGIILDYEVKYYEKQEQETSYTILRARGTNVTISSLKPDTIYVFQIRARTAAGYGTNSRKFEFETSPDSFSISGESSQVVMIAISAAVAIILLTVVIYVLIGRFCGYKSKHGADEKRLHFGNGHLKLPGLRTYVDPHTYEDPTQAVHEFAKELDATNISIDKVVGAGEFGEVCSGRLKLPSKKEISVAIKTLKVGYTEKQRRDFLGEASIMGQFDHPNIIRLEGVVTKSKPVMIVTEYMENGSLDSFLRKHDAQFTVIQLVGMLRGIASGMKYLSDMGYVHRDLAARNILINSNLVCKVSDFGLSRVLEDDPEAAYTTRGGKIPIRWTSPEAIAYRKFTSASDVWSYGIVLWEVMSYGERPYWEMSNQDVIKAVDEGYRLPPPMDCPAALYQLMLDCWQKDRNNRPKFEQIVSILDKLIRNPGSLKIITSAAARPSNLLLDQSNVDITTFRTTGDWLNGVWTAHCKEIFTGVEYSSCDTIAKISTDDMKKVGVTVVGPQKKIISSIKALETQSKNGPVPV
Briefly: KinaseProfiler assay (Upstate), EphA3. On the procedure:
as §1, §2
In a final reaction volume of 25 EphA3 (h) (5-10 mU) is incubated with 8 mM MOPS pH 7.0, 0.2 mM EDTA, 0.1 mg/ml poly(Glu, Tyr) 4:1, 10 mM MgAcetate and [γ-33P-ATP] (specific activity approx. 500 cpm/pmol, concentration as required). The reaction is initiated by the addition of the MgATP mix. After incubation for 40 minutes at room temperature, the reaction is stopped by the addition of 5 μl of a 3% phosphoric acid solution. 10 μl of the reaction is then spotted onto a Filtermat A and washed three times for 5 minutes in 75 mM phosphoric acid and once in methanol prior to drying and scintillation counting.

A further test has as its target T4, Flt4(h) (Homo sapiens, UniProt P35916).
T4 construct: purchased Upstate Biotechnology (Dundee, UK), KinaseProfiler service
In words: KinaseProfiler assay (Upstate), Flt4. On the procedure:
as §1, §2

T4 sequence (P35916 25-1363): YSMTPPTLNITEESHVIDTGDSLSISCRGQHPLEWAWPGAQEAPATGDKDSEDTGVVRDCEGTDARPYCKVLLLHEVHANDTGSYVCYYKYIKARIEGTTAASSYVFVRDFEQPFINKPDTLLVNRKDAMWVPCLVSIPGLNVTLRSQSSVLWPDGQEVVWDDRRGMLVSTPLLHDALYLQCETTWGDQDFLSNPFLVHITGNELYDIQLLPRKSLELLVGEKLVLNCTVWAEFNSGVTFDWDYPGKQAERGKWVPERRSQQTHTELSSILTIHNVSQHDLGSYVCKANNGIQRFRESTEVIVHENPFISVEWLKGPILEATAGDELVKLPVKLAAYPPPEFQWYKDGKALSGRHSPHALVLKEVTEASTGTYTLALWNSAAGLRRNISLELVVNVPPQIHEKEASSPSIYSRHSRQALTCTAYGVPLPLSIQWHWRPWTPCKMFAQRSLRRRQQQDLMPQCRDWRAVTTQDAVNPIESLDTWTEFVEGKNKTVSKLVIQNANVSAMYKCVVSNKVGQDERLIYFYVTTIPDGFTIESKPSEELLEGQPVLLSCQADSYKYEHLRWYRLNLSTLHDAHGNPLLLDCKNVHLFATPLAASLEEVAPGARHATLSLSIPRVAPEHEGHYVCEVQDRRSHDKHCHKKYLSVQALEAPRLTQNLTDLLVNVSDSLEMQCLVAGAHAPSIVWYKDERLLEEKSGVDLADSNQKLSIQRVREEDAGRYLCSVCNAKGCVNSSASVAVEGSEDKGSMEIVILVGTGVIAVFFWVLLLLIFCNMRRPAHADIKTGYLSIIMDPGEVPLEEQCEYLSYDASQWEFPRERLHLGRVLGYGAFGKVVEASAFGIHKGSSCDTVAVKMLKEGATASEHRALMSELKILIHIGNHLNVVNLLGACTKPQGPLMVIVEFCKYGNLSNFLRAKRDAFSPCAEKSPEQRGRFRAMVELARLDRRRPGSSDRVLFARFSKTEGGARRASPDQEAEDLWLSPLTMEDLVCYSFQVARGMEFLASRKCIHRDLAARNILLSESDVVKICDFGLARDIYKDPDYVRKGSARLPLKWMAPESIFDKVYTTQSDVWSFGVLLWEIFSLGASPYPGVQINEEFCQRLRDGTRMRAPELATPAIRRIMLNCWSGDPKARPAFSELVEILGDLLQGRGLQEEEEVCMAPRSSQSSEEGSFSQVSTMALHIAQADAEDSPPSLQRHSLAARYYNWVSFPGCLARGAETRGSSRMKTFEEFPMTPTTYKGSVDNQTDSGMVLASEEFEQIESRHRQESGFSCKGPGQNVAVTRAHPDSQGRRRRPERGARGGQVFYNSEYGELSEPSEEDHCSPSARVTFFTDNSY
T1 sequence (P35968 20-1356): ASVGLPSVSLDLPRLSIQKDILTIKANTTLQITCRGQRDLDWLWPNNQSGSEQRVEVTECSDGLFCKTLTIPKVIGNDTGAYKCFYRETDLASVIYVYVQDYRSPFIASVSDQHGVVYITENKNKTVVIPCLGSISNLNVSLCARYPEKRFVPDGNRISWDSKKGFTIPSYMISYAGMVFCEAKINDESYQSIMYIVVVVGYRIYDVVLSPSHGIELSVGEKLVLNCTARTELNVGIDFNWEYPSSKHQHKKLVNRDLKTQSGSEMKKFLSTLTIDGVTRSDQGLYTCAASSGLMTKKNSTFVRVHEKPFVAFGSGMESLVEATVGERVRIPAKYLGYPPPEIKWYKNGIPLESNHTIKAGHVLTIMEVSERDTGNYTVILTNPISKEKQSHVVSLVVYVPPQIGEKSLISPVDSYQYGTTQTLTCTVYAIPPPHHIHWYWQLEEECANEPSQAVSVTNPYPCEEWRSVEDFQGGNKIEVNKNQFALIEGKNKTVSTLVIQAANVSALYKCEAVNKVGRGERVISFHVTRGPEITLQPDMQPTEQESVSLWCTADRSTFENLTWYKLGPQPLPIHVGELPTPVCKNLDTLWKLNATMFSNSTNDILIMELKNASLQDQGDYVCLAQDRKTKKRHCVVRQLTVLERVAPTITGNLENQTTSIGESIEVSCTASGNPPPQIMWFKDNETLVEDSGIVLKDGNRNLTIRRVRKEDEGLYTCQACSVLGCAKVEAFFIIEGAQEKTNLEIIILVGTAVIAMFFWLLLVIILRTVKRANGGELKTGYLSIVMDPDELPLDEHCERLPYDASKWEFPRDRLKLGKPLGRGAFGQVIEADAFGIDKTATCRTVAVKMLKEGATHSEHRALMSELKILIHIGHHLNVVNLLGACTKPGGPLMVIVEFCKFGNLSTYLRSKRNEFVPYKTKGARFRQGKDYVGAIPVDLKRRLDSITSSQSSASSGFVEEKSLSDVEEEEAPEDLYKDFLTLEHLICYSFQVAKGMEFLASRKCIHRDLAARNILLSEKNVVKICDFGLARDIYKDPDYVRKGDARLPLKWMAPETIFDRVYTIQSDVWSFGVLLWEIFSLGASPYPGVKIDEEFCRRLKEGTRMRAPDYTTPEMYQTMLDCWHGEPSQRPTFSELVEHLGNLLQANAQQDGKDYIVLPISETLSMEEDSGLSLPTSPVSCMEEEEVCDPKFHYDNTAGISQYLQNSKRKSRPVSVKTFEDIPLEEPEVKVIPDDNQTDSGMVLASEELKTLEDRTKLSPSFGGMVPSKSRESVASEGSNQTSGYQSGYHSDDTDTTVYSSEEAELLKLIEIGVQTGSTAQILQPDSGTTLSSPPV

What is called IC50 is the concentration needed to halve the response being measured. A word on the inhibition: it is the relative decrease from the control value, in per cent. In turn, `Cc1cccc(C(=O)Nc2cccc([C@H](C)Nc3cncc(-n4ccnc4)n3)c2)c1` [Compound 143, (S)—N-(3-(1-(6-(1H-imidazol-1-yl)pyrazin-2-ylamino)ethyl)phenyl)-3-methylbenzamide] came in with a half-inhibitory concentration (IC50) against KDR protein kinase of less than 100 nM. Also, the values for the inhibition at 0.1 µM at Hck(h), on EphA3(h) and against Flt4(h) were 55%, 0% and 95%, respectively. Further, the inhibition at 1 µM on Hck(h) is 82%; against EphA3(h) it was 58%; against Flt4(h) it was 99%.

The compound `C[C@H](Nc1cncc(-c2cccc(N3CCOCC3)c2)n1)c1cccc(NC(=O)c2cccc(C(F)(F)F)c2)c1` [Compound 149] registered an IC50 against KDR protein kinase of less than 100 nM. Moreover, the results for the inhibition at 0.1 µM against Hck(h), against EphA3(h) and at Flt4(h) were 94%, 46% and 96%, respectively. In addition, the inhibition at 1 µM was 100% at Hck(h), 94% against EphA3(h) and 99% on Flt4(h).

`C[C@H](Nc1cncc(Cl)n1)c1cccc(NC(=O)c2cccc(C(F)(F)F)c2)c1` [Compound 114, (S)—N-(3-(1-(6-chloropyrazin-2-ylamino)ethyl)phenyl)-3-(trifluoromethyl)benzamide] gave an IC50 on KDR protein kinase of less than 100 nM. In addition, the inhibition at 0.1 µM on Hck(h) was 74%; on EphA3(h), 24%; against Flt4(h) it was 92%. The figures for the inhibition at 1 µM at Hck(h), against EphA3(h) and at Flt4(h) were 102%, 92% and 99%, respectively.

On KDR protein kinase, `Cc1cccc(C(=O)Nc2cccc([C@H](C)Nc3cncc(-c4cccc(N5CCOCC5)c4)n3)c2)c1` [Compound 147] displayed a half-inhibitory concentration (IC50) of less than 100 nM. Moreover, the results for the inhibition at 0.1 µM at Hck(h), against EphA3(h) and against Flt4(h) were 90%, 44% and 100%, respectively. For the same compound, the results for the inhibition at 1 µM against Hck(h), against EphA3(h) and on Flt4(h) were 100%, 91% and 99%, respectively.

`Cc1cccc(C(=O)Nc2cccc([C@H](C)Nc3cncc(-c4ccc(S(N)(=O)=O)cc4)n3)c2)c1` [Compound 77] yielded an IC50 on KDR protein kinase of less than 100 nM. Moreover, the inhibition at 0.1 µM on Hck(h) amounted to 64%; against EphA3(h), 17%; against Flt4(h) it was 98%. The inhibition at 1 µM came out at 95% against Hck(h), 70% against EphA3(h) and 97% at Flt4(h).

The compound `Cc1cccc(C(=O)Nc2cccc([C@H](C)Nc3cncc(C(N)=O)n3)c2)c1` [Compound 133, (S)-6-(1-(3-(3-methylbenzamido)phenyl)ethylamino)pyrazine-2-carboxamide] showed an IC50 at KDR protein kinase of less than 100 nM. Moreover, the inhibition at 0.1 µM is 23% against Hck(h), -4% on EphA3(h) and 95% at Flt4(h). Further, the inhibition at 1 µM at Hck(h) is 84%; against EphA3(h), 34%; at Flt4(h) it was 100%.

In turn, `C[C@H](Nc1cncc(-c2ccc(N3CCN(C)CC3)cc2)n1)c1cccc(NC(=O)c2cccc(C(F)(F)F)c2)c1` [Compound 148] gave an IC50 on KDR protein kinase of less than 100 nM. Moreover, the inhibition at 0.1 µM against Hck(h) turned out to be 96%; against EphA3(h), 79%; at Flt4(h) it was 96%. Moreover, the inhibition at 1 µM against Hck(h), at EphA3(h) and against Flt4(h) was 99% in each case.

For the compound `Cc1cccc(C(=O)Nc2cccc([C@H](C)Nc3cncc(-c4ccc(N5CCN(C)CC5)cc4)n3)c2)c1` [Compound 129], the IC50 at KDR protein kinase was less than 100 nM. Moreover, the results for the inhibition at 0.1 µM against Hck(h), on EphA3(h) and at Flt4(h) were 84%, 18% and 100%, respectively. For the same compound, the results for the inhibition at 1 µM at Hck(h), against EphA3(h) and against Flt4(h) were 99%, 76% and 100%, respectively.

Regarding `Cc1cccc(C(=O)Nc2ccc(C)c([C@H](C)Nc3cncc(Cl)n3)c2)c1` [Compound 168], the inhibition at 0.1 µM against Hck(h) came out at 96%; against EphA3(h) it was 69%; against Flt4(h), 96%. Further, the inhibition at 1 µM against Hck(h) worked out at 101%; on EphA3(h), 98%; on Flt4(h) it was 97%.
